Assay results published in patent US20250041309A1 (ZHENAO JINYINHUA PHARMACEUTICAL, priority 2021, published 2025).
Counter-ions that a name gives are not always drawn.

Assays:
[1] = pH measurement of Aildenafil salts dissolved in water; format: physicochemical; details: for 2 mg/ml pH value: 2 mg/ml in water; for 10 mg/ml pH value: 10 mg/ml in water
MCAO rats [2] = experiment: Balance beam test in MCAO rats, injection of Aildenafil phosphate (Example 24); format: in vivo; details: x ± sD, n = 7
Protocol: (§1) • ? Animal selection: healthy SD rats were used as experimental animals. In order to eliminate the impact of individual animal variations on the results, 10 rats were used in each group. […] After 2 hours of cerebral ischemia-reperfusion, the drug was immediately injected into the tail vein for consecutive 7 days.
(§2) On the day of the experiment, the rat was anesthetized with isoflurane gas and fixed in a supine position. The skin was cut along the midline of the neck to expose the right arteriae carotis communis. The nerves and fascia around the blood vessels from the common carotid artery bifurcation to the base of the skull were carefully removed, and the external and internal carotid arteries were separated sequentially. A MCAO suture (250-280 g) was inserted from the free end of the external carotid artery, and the nylon suture was introduced into the internal carotid artery from the distal end of the external carotid artery. It was inserted into the middle cerebral artery in the Willis ring to effectively block the middle cerebral artery. The length of the inserted suture was 18-20 mm away from the bifurcation of the common carotid artery. Then the free end of the external carotid artery was ligated along with intracavity suture to prevent bleeding. The subcutaneous fascia and skin were sutured layer by layer, and penicillin was locally added dropwise to prevent infection. The Sham group only isolated the internal carotid artery. 2 hours after the start of MCAO, the suture was carefully removed from the lumen of the internal carotid artery to allow for reperfusion of the internal carotid artery. Animals were kept in cages. • ? Y Grouping and administration
(§3) The rats successfully modeled with a neurological function score of 8-12 were randomly divided into four groups based on the score: model control group, low-dose 2.5 mg/kg group of test drug, medium dose 5 mg/kg group of test drug, and high-dose 10 mg/kg group of test drug, with 7 rats in each group. […] Immediately after cerebral ischemia-reperfusion for 2 hours, the drug was administered via tail vein injection for consecutive 7 days. The endpoint of the experiment is 14 days after the first administration. Please see Table 7 for details.
(§4) Balance beam and forelimb placement tests were performed after 7 and 14 days administration, respectively.

[3] = Sterilization stability test of aqueous solutions (121° C., 30 minutes, HPLC relevant substances); details: 0.5 mg/ml aqueous solution; for Conclusion (sterilization stability) / Relevant substances after sterilization: sterilized at 121° C. for 30 minutes
Protocol: They were sterilized in a 121° C. sterilizer for 30 minutes, and sampled before and after sterilization. The relevant substances were measured according to the following method:
Relevant substances: taking the samples and dissolving it in the mobile phase to prepare a solution containing 0.5 mg per 1 ml, which was used as the test solution; using octadecylsilane bonded silica gel as the filler, phosphate buffer (800 ml of water, 7 ml of triethylamine added, pH adjusted to 3.0 with phosphoric acid, diluted to 1000 ml with water)-methanol acetonitrile (58:25:17) as the mobile phase, with a detection wavelength of 290 nm.

[4] = Saturation solubility of Aildenafil salts in water at room temperature; format: physicochemical
MCAO rats [5] = experiment: Cerebral infarction range (TTC) in MCAO rats, injection of Aildenafil phosphate (Example 24); format: in vivo, SD rats; details: 14 days; for Improvement rate % of cerebral infarction range: versus model control group; for Infarct size (%): x ± sD, n = 7
Protocol: as §1, §2, §3
After 14 days of medication, rats were anesthetized with isoflurane gas to collect blood and euthanized by cervical vertebrae dislocation. The brain tissue was taken and placed in a −20° C. freezer for freezing, and was sliced from front to back, each slice has a thickness of 2 mm. Brain tissue slices were incubated in a 2% red tetrazolium (TTC) solution at 37° C. for 5 minutes. […] Image J software was used to measure the area of cerebral infarction and the percentage of infarct area to the total brain area was calculated.

MCAO rats [6] = experiment: Forelimb placement test in MCAO rats, injection of Aildenafil phosphate (Example 24); format: in vivo; details: x ± sD, n = 7
Protocol: as §1, §2, §3, §4

MCAO rats [7] = experiment: Neurological function (behavioral) score in MCAO rats, oral administration (Example 23); format: in vivo, SD rats; details: gavage 8 mg/kg twice a day; after 3, 7 and 14 days administration
Protocol: (§5) Administration route: gavage administration;
(§6) Dosage: 8 mg/kg body weight, twice a day;
(§7) Administration time: gavage administration twice a day in the morning and evening (administered immediately after modeling).
(§8) A rat model of middle cerebral artery ischemia/reperfusion (MCAO/R) was created using suture-occluded method.
After 2 hours of embolization, then reperfusion, according to the scoring criteria in the attached table, the degree of neurological damage in the animals was scored using a blind method. Those with significant neurological deficits (>8 points) were considered successful in modeling.
(§9) The successfully modeled rats were randomly divided into 4 groups based on their scores, with an average of 20 rats in each group.
Neurological function score: evaluation was conducted before treatment, 3 days, 7 days, and 14 days after treatment.

[8] = Physical and chemical properties of the experimental drugs (Example 23)
MCAO rats [9] = experiment: Cerebral infarction range (TTC) in MCAO rats, oral administration (Example 23); format: in vivo, SD rats; details: gavage 8 mg/kg*2, after 14 days; for Improvement rate % of cerebral infarction range: versus model control group; for Total cerebral infarction %: x ± s, n = 20
Protocol: as §5, §6, §7, §8, §9
At the end of the experiment, the brain tissue of the rats was collected by bloodletting and frozen in a −20° C. freezer, and then is sliced into a thickness of 2 mm per slice. The brain tissue slices were placed in a 2% red tetrazolium (TTC) solution and incubated at 37° C. for 5 minutes. The infarcted tissue appeared white, while the non-infarcted tissue appeared red. Image J software was used to measure the area of cerebral infarction and the percentage of infarct area to the total brain area was calculated.

[10] = system: ischemic stroke model rats; experiment: Cerebral infarction range (TTC), ischemic stroke model rats, intravenous administration (Example 22); format: in vivo, SD rats; details: 10 mg/kg iv qd 7 d
Excerpt: (§10) On the day of the experiment, the rat was anesthetized with isoflurane gas and placed in a supine position for fixation. The skin was cut along the midline of the neck to expose the right common carotid artery. The nerves and fascia around the blood vessels from the common carotid artery bifurcation to the base of the skull were carefully removed, and the external and internal carotid arteries were separated sequentially. The MCAO suture was inserted from the free end of the external carotid artery, and the nylon suture was introduced into the internal carotid artery from the distal end of the external carotid artery. It was inserted into the Willis ring of the middle cerebral artery to effectively block the middle cerebral artery. The length of the inserted suture was 18-20 mm away from the bifurcation of the common carotid artery. Then the free end of the external carotid artery was ligated along with the endovascular suture to prevent bleeding. […] Animals were kept in cages. The animals successfully modeled were randomly divided into three groups based on their scores, namely the model control group, compound 1 AD group ([…] citrate group) 10 mg/kg, and compound 2 XD group (Sildenafil citrate group) 10 mg/kg, with 10 animals in each group. […] The endpoint of the experiment was 14 days after administration, and the dosage is detailed in the table below. This experiment was administered intravenously with a dosage of 10 mg/kg and a volume of 5 mL/kg, once per day for consecutive 7 days. At the end of the experiment, the brain tissue of the rats was collected by bloodletting and frozen in a -20° C. freezer, then are sliced with a thickness of 2 mm per slice. The brain tissue slices were placed in a 2% red tetrazolium (TTC) solution and incubated at 37° C. for 5 minutes. The infarcted tissue appeared white, while the non-infarcted tissue appeared red.

[11] = system: ischemic stroke model rats; experiment: Neurological function (behavioral) score, ischemic stroke model rats, intravenous administration (Example 22); format: in vivo, SD rats; parameters: scale not given here; details: 10 mg/kg iv qd 7 d, x ± s, n = 10
Excerpt: as §10, with “cages. After 2 hours of embolization, then reperfusion, according to the scoring criteria in the attached table, the degree of neurological damage in the animals was scored using a blind method. Those with significant neurological deficits (>8 points) were considered successful in modeling. • ? Grouping and administration” for “cages.”, “Score before treatment, 3 days after treatment, 7 days after treatment,” for “At the end of the experiment, the brain tissue of the rats was collected by bloodletting”, “14 days after treatment.” for “frozen in a -20° C. freezer, then are sliced with a thickness of 2 mm per slice. The brain tissue slices were placed in a 2% red tetrazolium (TTC) solution and incubated at 37° C. for 5 minutes. The infarcted tissue appeared white, while the non-infarcted tissue appeared red.”

[12] = 5 mg/kg iv qd 7 d (medium dose)

CCCc1nn(C)c2c(=O)[nH]c(-c3cc(S(=O)(=O)N4C[C@@H](C)N[C@@H](C)C4)ccc3OCC)nc12 [Aildenafil D-tartrate]
2 mg/ml pH value ([1]; listed as D-tartrate): 3.84
10 mg/ml pH value ([1]; listed as D-tartrate): 3.58

CCCc1nn(C)c2c(=O)[nH]c(-c3cc(S(=O)(=O)N4C[C@@H](C)N[C@@H](C)C4)ccc3OCC)nc12 [Aildenafil phosphate]
balance beam, 7 days after medication (MCAO rats [2]; [12]): 2.14 ± 0.9 min
balance beam, 14 days after medication (MCAO rats [2]; [12]): 4.29 ± 1.38 min
balance beam, 7 days after medication (MCAO rats [2]; 10 mg/kg iv qd 7 d (high dose)): 2.71 ± 1.25 min
balance beam, 14 days after medication (MCAO rats [2]; 10 mg/kg iv qd 7 d (high dose)): 4.29 ± 1.60 min
Relevant substances before sterilization [3]: None
Conclusion (sterilization stability) [3]: No changes, stable
Relevant substances after sterilization [3]: no impurities were found and no impurities are produced and None
time to dissolve to be clear in water by hand shaking [4]: 15 s
Improvement rate % of cerebral infarction range (MCAO rats [5]; 5 mg/kg iv qd 7 d): 46.5%
Infarct size (%) (MCAO rats [5]; 5 mg/kg iv qd 7 d): 13.13 ± 4.12 %
Improvement rate % of cerebral infarction range (MCAO rats [5]; 10 mg/kg iv qd 7 d): 43.4%
Infarct size (%) (MCAO rats [5]; 10 mg/kg iv qd 7 d): 13.90 ± 4.70 %
2 mg/ml pH value [1]: 5.47
10 mg/ml pH value [1]: 5.38
Forelimb left (%), 7 days after medication (MCAO rats [6]; 5 mg/kg iv qd 7 d): 18.57 ± 18.64%
Forelimb left (%), 14 days after medication (MCAO rats [6]; 5 mg/kg iv qd 7 d): 37.14 ± 30.39 %
Forelimb right (%), 7 days after medication (MCAO rats [6]; 5 mg/kg iv qd 7 d): 100 ± 0%
Forelimb right (%), 14 days after medication (MCAO rats [6]; 5 mg/kg iv qd 7 d): 100 ± 0%
Forelimb left (%), 7 days after medication (MCAO rats [6]; 10 mg/kg iv qd 7 d): 14.29 ± 18.13%
Forelimb left (%), 14 days after medication (MCAO rats [6]; 10 mg/kg iv qd 7 d): 38.57 ± 28.54 %
Forelimb right (%), 7 days after medication (MCAO rats [6]; 10 mg/kg iv qd 7 d): 100 ± 0%
Forelimb right (%), 14 days after medication (MCAO rats [6]; 10 mg/kg iv qd 7 d): 100 ± 0%

Yukinafil citrate
behavioral scores compared with the model control group (MCAO rats [7]): trend of improvement
solubility in DMF or DMSO (in words) ([8]; DMF or DMSO): soluble
solubility in water (in words) ([8]; water): soluble
Improvement rate % of cerebral infarction range (MCAO rats [9]): 13.1%
Total cerebral infarction % (MCAO rats [9]): 21.2 ± 6.3%

CCCc1nn(C)c2c(=O)[nH]c(-c3cc(S(=O)(=O)N4C[C@@H](C)N[C@@H](C)C4)ccc3OCC)nc12.O=C(O)C(O)C(O)C(=O)O [Aildenafil L-tartrate, L-tartrate (1:1) of 1-[4-ethoxy-3-[5-(6,7-dihydro-1-methyl-7-oxy-3-n-propyl-1H-pyrazolo[4,3-d]pyrimidine)]benzenesulfonyl]-cis-3,5-dimethylpiperazine]
Relevant substances before sterilization [3]: None
Conclusion (sterilization stability) [3]: No changes, stable
Relevant substances after sterilization [3]: no impurities were found and None
Relevant substances after sterilization ([3]; listed as L-tartrate): no impurities are produced
time to dissolve to be clear in water by hand shaking [4]: 15 s
solubility ([4]; thermodynamic from solid, room temperature, read-out: Saturated Solubility in water at room temperature): ~50 mg/mL
2 mg/ml pH value [1]: 3.59
10 mg/ml pH value [1]: 3.56

CCCc1nn(C)c2c(=O)[nH]c(-c3cc(S(=O)(=O)N4C[C@@H](C)N[C@@H](C)C4)ccc3OCC)nc12 [Aildenafil citrate]
Total cerebral infarction % ([10]; 14 days after administration, x ± s, n = 10): 17.6 ± 7.7 %
Improvement rate % of cerebral infarction range ([10]; 14 days, versus model control group): 29.6%
Relevant substances before sterilization [3]: None
Conclusion (sterilization stability) [3]: No changes, stable
Relevant substances after sterilization [3]: no impurities were found and None
behavioral score, 3 days after medication ([11]; 3 days after medication): 6.9 ± 1.5
behavioral score, 7 days after medication ([11]; 7 days after medication): 5.5 ± 1.1
behavioral score, 14 days after medication ([11]; 14 days after medication): 4.3 ± 1.3
behavioral score, Before medication ([11]; before medication): 9.7 ± 0.5
2 mg/ml pH value [1]: 4.11
10 mg/ml pH value [1]: Insoluble

CCCc1nn(C)c2c(=O)[nH]c(-c3cc(S(=O)(=O)N4C[C@@H](C)N[C@@H](C)C4)ccc3OCC)nc12 [Aildenafil DL-tartrate]
2 mg/ml pH value [1]: 3.90
10 mg/ml pH value [1]: 3.57

CN1CC(=O)N2[C@H](c3ccc4c(c3)OCO4)c3[nH]c4ccccc4c3C[C@@H]2C1=O [Tadalafil]
Improvement rate % of cerebral infarction range (MCAO rats [9]): 14.2%
Total cerebral infarction % (MCAO rats [9]): 21.3 ± 6.5%
